In patent US8946189B2, “Transplants” (priority 2007, dated 2015):
Several values for one entry are separate records, joined by “and”; a condition that tells them apart may be missing. Equal values may be shown once. Entries after “also recorded” stand apart in the source; their conditions may differ.

Experiments:
[1] = system: NK(2) and NK(3) receptors; details: vs NK(1); cited from earlier work
human NK(1) receptor = human NK(1) receptor (Homo sapiens, UniProt P25103); details: cited from earlier work
[2] = oral and/or intravenous, 10, 25, 50 and 100 mg/kg body weight; cited from earlier work
[3] = cited from earlier work
[4] = system: isolated rat aortic rings; experiment: Organ bath tension of isolated rat aortic rings (intact and denuded) precontracted with norepinephrine; format: cell-based; details: for Tension of aortic rings: after 0.3 uM norepinephrine
[5] = system: vascular smooth muscle cells; details: cited from earlier work
[6] = in vivo; cited from earlier work
[7] = system: human saphenous vein rings and rat aortic rings; format: cell-based

human NK(1) receptor, sequence (P25103 whole entry): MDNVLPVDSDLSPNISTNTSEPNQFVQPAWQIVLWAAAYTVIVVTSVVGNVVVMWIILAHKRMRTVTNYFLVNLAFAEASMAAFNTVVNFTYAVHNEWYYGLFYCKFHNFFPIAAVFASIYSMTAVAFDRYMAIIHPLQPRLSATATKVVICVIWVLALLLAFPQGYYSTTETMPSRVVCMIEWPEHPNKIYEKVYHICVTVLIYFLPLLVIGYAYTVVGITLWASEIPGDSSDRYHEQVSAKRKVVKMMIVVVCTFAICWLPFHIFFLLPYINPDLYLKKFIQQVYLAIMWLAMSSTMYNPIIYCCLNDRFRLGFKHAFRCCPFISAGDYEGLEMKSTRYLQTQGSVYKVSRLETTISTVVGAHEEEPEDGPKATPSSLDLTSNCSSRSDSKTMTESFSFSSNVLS

## Cc1cccc(C)c1NC(=O)C[C@H]1CCN(C(=O)c2cc(C(F)(F)F)cc(C(F)(F)F)c2)[C@@H](Cc2ccccc2)C1.O=C(O)C[C@H](O)C(=O)O (relative stereo) [R116301, (2R-trans)-4-[1-[3,5-bis(trifluoromethyl)benzoyl]-2-(phenylmethyl)-4-piperidinyl]-N-(2,6-dimethylphenyl)-1-acetamide (S)-Hydroxybutanedioate]
[1]
  Selectivity toward NK(2) and NK(3) receptors: over 200 fold
Human NK(1) receptor
  Ki: 0.45 nM

## NC(=O)c1ncn([C@@H]2O[C@H](CO)[C@@H](O)[C@H]2O)c1N [Acadesine, 5-amino-4-imidazole carboxamide ribonucleoside]
[2]
  Safety in humans: safe in humans

## Nc1ncnc2c1ncn2[C@@H]1O[C@H](CO)[C@@H](O)[C@H]1O [Adenosine, 6-amino-9-β-D-ribofuranosyl-9H-purine]
[3]
  Half life in the blood: about 10 seconds
[4]; 400 uM
  Relaxation of denuded rings as percent of the relaxation of intact rings: 35%
[4]; 500 uM
  Relaxation of denuded rings as percent of the relaxation of intact rings: 44%
[4]; at 400 and 500 uM
  Greater falls in tension than lidocaine alone: about 30%
[4]; denuded rings
  Concentration at which tension begins to decrease by over 5% relative to the precontracted state: 300 µM
[4]; denuded rings, 10 uM
  Tension expressed as a percent of baseline: 100%
[4]; denuded rings, 50 uM
  Tension expressed as a percent of baseline: 100% and 99%
[4]; denuded rings, 100 uM
  Tension expressed as a percent of baseline: 99% and 98%
[4]; denuded rings, 200 uM
  Relaxation (percent tension decrease) relative to the precontracted state: 4%
  Tension expressed as a percent of baseline: 95% and 93%
[4]; denuded rings, 300 uM
  Tension expressed as a percent of baseline: 88%
[4]; denuded rings, drug 10 μM
  Extent of relaxation, percentage of precontracted norepinephrine tension: 100.3 ± 0.2%
  Tension of aortic rings: 3.56 ± 0.08 g
[4]; denuded rings, drug 60 μM
  Extent of relaxation, percentage of precontracted norepinephrine tension: 100.0 ± 0.4%
  Tension of aortic rings: 3.55 ± 0.09 g
[4]; denuded rings, drug 160 μM
  Extent of relaxation, percentage of precontracted norepinephrine tension: 98.9 ± 0.5%
  Tension of aortic rings: 3.51 ± 0.09 g
[4]; denuded rings, drug 360 μM
  Extent of relaxation, percentage of precontracted norepinephrine tension: 95.2 ± 1.1%
  Tension of aortic rings: 3.39 ± 0.11 g
[4]; denuded rings, drug 660 μM
  Extent of relaxation, percentage of precontracted norepinephrine tension: 87.6 ± 2.3%
  Tension of aortic rings: 3.12 ± 0.14 g
[4]; denuded rings, drug 1060 μM
  Extent of relaxation, percentage of precontracted norepinephrine tension: 76.6 ± 3.4%
  Tension of aortic rings: 2.73 ± 0.17 g
[4]; denuded rings, drug 1560 μM
  Extent of relaxation, percentage of precontracted norepinephrine tension: 62.4 ± 4.2%
  Tension of aortic rings: 2.23 ± 0.17 g
[4]; intact rings
  Concentration at which tension begins to decrease by over 5% relative to the precontracted state: 100 µM
[4]; intact rings, 10 uM
  Relaxation (percent tension decrease) relative to the precontracted state: no change
  Tension expressed as a percent of baseline: 99%
[4]; intact rings, 50 uM
  Relaxation (percent tension decrease) relative to the precontracted state: no change
  Tension expressed as a percent of baseline: 96%
[4]; intact rings, 100 uM
  Tension expressed as a percent of baseline: 89%
[4]; intact rings, 200 uM
  Tension expressed as a percent of baseline: 76%
[4]; intact rings, 300 uM
  Tension expressed as a percent of baseline: 61%
[4]; intact rings, 400 uM
  Tension expressed as a percent of baseline: 48%
[4]; intact rings, 500 uM
  Tension expressed as a percent of baseline: 39%
[4]; intact rings, at 500 uM
  Maximum relaxation relative to the precontracted state: 48%
[4]; intact rings, drug 10 μM
  Extent of relaxation, percentage of precontracted norepinephrine tension: 99.0 ± 0.3%
  Tension of aortic rings: 3.65 ± 0.12 g
[4]; intact rings, drug 60 μM
  Extent of relaxation, percentage of precontracted norepinephrine tension: 96.2 ± 0.7%
  Tension of aortic rings: 3.54 ± 0.11 g
[4]; intact rings, drug 160 μM
  Extent of relaxation, percentage of precontracted norepinephrine tension: 89.7 ± 1.5%
  Tension of aortic rings: 3.30 ± 0.09 g
[4]; intact rings, drug 360 μM
  Extent of relaxation, percentage of precontracted norepinephrine tension: 76.3 ± 3.1%
  Tension of aortic rings: 2.81 ± 0.11 g
[4]; intact rings, drug 660 μM
  Extent of relaxation, percentage of precontracted norepinephrine tension: 60.7 ± 4.2%
  Tension of aortic rings: 2.23 ± 0.14 g
[4]; intact rings, drug 1060 μM
  Extent of relaxation, percentage of precontracted norepinephrine tension: 48.5 ± 3.9%
  Tension of aortic rings: 1.78 ± 0.13 g
[4]; intact rings, drug 1560 μM
  Extent of relaxation, percentage of precontracted norepinephrine tension: 38.9 ± 2.8%
  Tension of aortic rings: 1.43 ± 0.08 g
[4]
  Dependence of relaxation on an intact endothelium (denuded vs intact rings): dependent on an intact endothelium

## OCCN(CCO)c1nc(N2CCCCC2)c2nc(N(CCO)CCO)nc(N3CCCCC3)c2n1 [Dipyridamole]
[5]; 75 microg/mL (0.150 mM), Kim et al
  Inhibition of growth of vascular smooth muscle cells: approximately 90%
[5]; after drug exposure of only 15 min
  Duration of sustained antiproliferative effects: 48 h

## CCN(CC)CC(=O)Nc1c(C)cccc1C [Lidocaine]
[4]; denuded rings
  Concentration at which tension begins to decrease by over 5% relative to the precontracted state: 200 µM
[4]; denuded rings, 200 uM
  Relaxation (percent tension decrease) relative to the precontracted state: 7%
[4]; denuded rings, drug 10 μM
  Extent of relaxation, percentage of precontracted norepinephrine tension: 100.0 ± 0.4%
  Tension of aortic rings: 3.32 ± 0.12 g
[4]; denuded rings, drug 60 μM
  Extent of relaxation, percentage of precontracted norepinephrine tension: 99.4 ± 0.4%
  Tension of aortic rings: 3.31 ± 0.12 g
[4]; denuded rings, drug 160 μM
  Extent of relaxation, percentage of precontracted norepinephrine tension: 96.8 ± 0.7%
  Tension of aortic rings: 3.24 ± 0.12 g
[4]; denuded rings, drug 360 μM
  Extent of relaxation, percentage of precontracted norepinephrine tension: 93.4 ± 0.6%
  Tension of aortic rings: 3.11 ± 0.12 g
[4]; denuded rings, drug 660 μM
  Tension of aortic rings: 2.92 ± 0.12 g
[4]; denuded rings, drug 1060 μM
  Extent of relaxation, percentage of precontracted norepinephrine tension: 82.4 ± 1.0%
  Tension of aortic rings: 2.75 ± 0.12 g
[4]; denuded rings, drug 1560 μM
  Extent of relaxation, percentage of precontracted norepinephrine tension: 75.8 ± 2.0%
  Tension of aortic rings: 2.53 ± 0.13 g
[4]; intact rings
  Concentration at which tension begins to decrease by over 5% relative to the precontracted state: 200 µM
[4]; intact rings, 10 uM
  Relaxation (percent tension decrease) relative to the precontracted state: no change
  Tension expressed as a percent of baseline: 100%
[4]; intact rings, 50 uM
  Relaxation (percent tension decrease) relative to the precontracted state: no change
  Tension expressed as a percent of baseline: 96%
[4]; intact rings, 100 uM
  Relaxation (percent tension decrease) relative to the precontracted state: 5%
  Tension expressed as a percent of baseline: 96%
[4]; intact rings, 200 uM
  Tension expressed as a percent of baseline: 91%
[4]; intact rings, 300 uM
  Relaxation relative to the relaxation of intact adenosine alone: 14%
  Tension expressed as a percent of baseline: 84%
[4]; intact rings, 400 uM
  Relaxation (percent tension decrease) relative to the precontracted state: 24%
  Relaxation relative to the relaxation of intact adenosine alone: 30%
  Tension expressed as a percent of baseline: 76%
[4]; intact rings, 500 uM
  Relaxation relative to the relaxation of intact adenosine alone: 30%
  Tension expressed as a percent of baseline: 72%
[4]; intact rings, drug 10 μM
  Extent of relaxation, percentage of precontracted norepinephrine tension: 99.7 ± 0.2%
  Tension of aortic rings: 3.57 ± 0.08 g
[4]; intact rings, drug 60 μM
  Extent of relaxation, percentage of precontracted norepinephrine tension: 97.8 ± 0.7%
  Tension of aortic rings: 3.50 ± 0.08 g
[4]; intact rings, drug 160 μM
  Extent of relaxation, percentage of precontracted norepinephrine tension: 96.2 ± 0.6%
  Tension of aortic rings: 3.44 ± 0.07 g
[4]; intact rings, drug 360 μM
  Extent of relaxation, percentage of precontracted norepinephrine tension: 91.7 ± 0.5%
  Tension of aortic rings: 3.28 ± 0.07 g
[4]; intact rings, drug 660 μM
  Extent of relaxation, percentage of precontracted norepinephrine tension: 84.4 ± 1.2%
  Tension of aortic rings: 3.02 ± 0.07 g
[4]; intact rings, drug 1060 μM
  Extent of relaxation, percentage of precontracted norepinephrine tension: 76.2 ± 3.5%
  Tension of aortic rings: 2.73 ± 0.13 g
[4]; intact rings, drug 1560 μM
  Extent of relaxation, percentage of precontracted norepinephrine tension: 72.2 ± 3.5%
  Tension of aortic rings: 2.59 ± 0.14 g
[4]
  Dependence of relaxation on an intact endothelium (denuded vs intact rings): endothelium independent; also recorded: does not appear to be endothelium dependent

## CSCC[C@@H]1NC(=O)[C@H](CC(C)C)NC(=O)[C@H](CCCNC(=N)N)NC(=O)[C@H](CO)NC(=O)[C@@H]2CSSC[C@@H]3NC(=O)[C@H](CO)NC(=O)CNC(=O)[C@H]([C@@H](C)O)NC(=O)[C@H](CSSC[C@H](N)C(=O)N[C@@H](CCCCN)C(=O)NCC(=O)N[C@@H](CCCCN)C(=O)NCC(=O)N[C@@H](C)C(=O)N[C@@H](CCCCN)C(=O)N2)NC(=O)[C@H](CSSC[C@@H](C(N)=O)NC(=O)[C@H](CCCCN)NC(=O)CNC(=O)[C@H](CO)NC(=O)[C@H](CCCNC(=N)N)NC3=O)NC(=O)[C@H](CC(=O)O)NC(=O)[C@H](Cc2ccc(O)cc2)NC1=O [Omega conotoxin MVIIA]
[6]
  Potency as an analgesic relative to morphine: 100-1000 fold

## Botulinum toxin type A
[7]
  Relaxation of vascular smooth muscle: dose dependent relaxation
